# Data from patent US20190284286A1, “Modulation of Type I Interferons to Reactivate HIV-1 Reservoir and Enhance HIV-1 Treatment” (The University of North Carolina at Chapel Hill, priority 2016, published 2019).
# What was measured:
# CD4 T cells = experiment: Ex vivo culture of splenocytes from HIV-1 persistently infected humanized mice; assay type: cell-based; conditions: for number of live CD4 T cells (CD4 T cell depletion) / active caspase-3 / apoptosis of CD4 T cells: 10 days culture, Z-DEVD-FMK 10 μM; for number of live CD4 T cells (CD4 T cell depletion): Ac-YVAD-CMK 50 μM
# Procedure: Mice were sacrificed at 10 wpi. […] At day 10, the cells were counted and used for analysis. (B) HIV-1 RNA levels in culture supernatant. (C-D) Representative dot plots (C) and summarized data (D) show percentages of CD4 T cells with active caspase-3. (E) Number of live CD4 T cells in each group. (F-I) Splenocytes from mock (n=2) or HIV-1 infected (n=4) humanized mice were cultured with IL-2 in vitro in the presence of DMSO or caspase-3 inhibitor Z-DEVD-FMK or caspase-1 inhibitor Ac-YVAD-CMK for 10 days. At day 10, the cells were counted and used for staining. (F-G) Representative dot plots (F) and summarized data (G) show percentages of active caspase-3^+ CD4 T cells. (H-I) Number of live CD4 T cells in each group. Data are one representative of 2 independent experiments with mean values±s.e.m.). *P<0.05, **P<0.01 by unpaired, two-tailed Student's t-test to compare differences between each two groups.
# For surface staining, single cell suspensions prepared from peripheral blood, spleen, or mesenteric lymph nodes of humanized mice were stained with surface markers and analyzed on a CyAn ADP flow cytometer (Dako). For intracellular staining, cells were first stained with surface markers, and then fixed and permeabilized with cytofix/cytoperm buffer (BD Bioscience), followed by intracellular staining. PE-conjugated anti-human active caspase-3 (C92-605) was used to detect intracellular activation of caspase-3. Fluorescent labeled inhibitors of caspases-1 probe assay (FLICA 660 Caspase-1 Assay Kit, ImmunoChemistry Technologies) were performed to determine intracellular activation of caspases-1. Data were analyzed using Summit4.3 software (Dako).
# Media were half-changed every 2-3 days. At day 10, the cells were counted and used for staining.
# HIV-1 = conditions: long-term IFN-α during and after ART; cited from earlier work
# [1] = α-IFNAR1 10 μg/ml, IFN-α 200 u/ml
Molecule,number of live CD4 T cells (CD4 T cell depletion) (CD4 T cells),active caspase-3 / apoptosis of CD4 T cells (CD4 T cells; [1]),"HIV-1 replication (HIV-1 RNA in culture supernatant) (CD4 T cells; 10 days culture with IL-2, α-IFNAR1 10 μg/ml, IFN-α 200 u/ml)",patients with suppression of HIV-1 rebound (HIV-1)
"CC(=O)N[C@@H](Cc1ccc(O)cc1)C(=O)N[C@H](C(=O)N[C@@H](C)C(=O)N[C@@H](CC(=O)O)C(=O)CCl)C(C)C [Ac-YVAD-CMK, reference compound]",did not prevent CD4 T cell depletion,,,
"COC(=O)CC[C@H](NC(=O)[C@H](CC(=O)OC)NC(=O)OCc1ccccc1)C(=O)N[C@H](C(=O)N[C@@H](CC(=O)OC)C(=O)CF)C(C)C [Z-DEVD-FMK, reference compound]",rescued CD4 T cell number,reduced HIV-1 induced CD4 T cell apoptosis,,
IFN-α,accelerated CD4 T cell depletion,further increased the level of active caspase-3,inhibited HIV-1 replication,~40%
